Measurements from PubChem BioAssay (NCI).
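These data come from cells grown in 96-well plates and exposed to compound for 48 hours at five concentrations. At the TGI there is no net growth.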

How the values were obtained:
Experiment in all cases: NCI tumour cell line growth inhibition, 48 h
CCRF-CEM leukemia = system: CCRF-CEM leukemia
BT-549 breast = system: BT-549 breast
NCI-H226 lung = system: NCI-H226 lung
RXF 393 renal = system: RXF 393 renal
SF-539 CNS = system: SF-539 CNS
HCC-2998 colon = system: HCC-2998 colon
COLO 205 colon = system: COLO 205 colon
RPMI-8226 leukemia = system: RPMI-8226 leukemia
MDA-MB-435 = system: MDA-MB-435
UO-31 renal = system: UO-31 renal

SMILES: COc1nc2nccnc2c(=O)n1C
- TGI (CCRF-CEM leukemia): > 10 µM
- TGI (BT-549 breast): > 10 µM
- TGI (NCI-H226 lung): > 10 µM
- TGI (RXF 393 renal): > 10 µM
- TGI (SF-539 CNS): > 10 µM
- TGI (HCC-2998 colon): > 10 µM
- TGI (COLO 205 colon): > 10 µM
- TGI (RPMI-8226 leukemia): > 10 µM
- TGI (MDA-MB-435): > 10 µM
- TGI (UO-31 renal): > 10 µM

SMILES: CSc1cnc2ccccc2c1SC1CN(Cc2ccccc2)c2ccccc2C1=O (stereo not given)
- TGI (CCRF-CEM leukemia): > 100 µM
- TGI (BT-549 breast): > 100 µM
- TGI (NCI-H226 lung): > 100 µM
- TGI (RXF 393 renal): > 100 µM
- TGI (SF-539 CNS): > 100 µM
- TGI (HCC-2998 colon): > 100 µM
- TGI (COLO 205 colon): > 100 µM
- TGI (RPMI-8226 leukemia): > 100 µM
- TGI (MDA-MB-435): > 100 µM
- TGI (UO-31 renal): > 100 µM

SMILES: CCN1CCC(O)(/C=C/c2ccc(C)cc2C)C(C(=O)/C=C/c2ccc(C)cc2C)C1 (stereo not given)
- TGI (CCRF-CEM leukemia): 7.8 µM
- TGI (BT-549 breast): 8.52 µM
- TGI (NCI-H226 lung): 7.79 µM
- TGI (RXF 393 renal): 14.3 µM
- TGI (SF-539 CNS): 4.18 µM
- TGI (HCC-2998 colon): 3.37 µM
- TGI (COLO 205 colon): 4.05 µM
- TGI (RPMI-8226 leukemia): > 21.2 µM
- TGI (MDA-MB-435): 7.95 µM
- TGI (UO-31 renal): 6.66 µM

SMILES: CC1=C(CO)C(=O)O[C@@H]([C@@H](CO)[C@H]2CCC3C4C[C@@H](O)[C@@]5(O)CC=CC(=O)[C@]5(C)C4CC[C@@]32C)C1 (stereo not given in full)
- TGI (CCRF-CEM leukemia): > 100 µM
- TGI (BT-549 breast): > 100 µM
- TGI (NCI-H226 lung): > 100 µM
- TGI (RXF 393 renal): 92.9 µM
- TGI (SF-539 CNS): > 100 µM
- TGI (HCC-2998 colon): > 100 µM
- TGI (COLO 205 colon): > 100 µM
- TGI (RPMI-8226 leukemia): > 100 µM
- TGI (MDA-MB-435): > 100 µM
- TGI (UO-31 renal): 57.1 µM

SMILES: COc1ccc2cc(C(C)C(=O)N3CCOC3=O)ccc2c1 (stereo not given)
- TGI (CCRF-CEM leukemia): > 100 µM
- TGI (BT-549 breast): > 100 µM
- TGI (NCI-H226 lung): > 100 µM
- TGI (RXF 393 renal): > 100 µM
- TGI (SF-539 CNS): > 100 µM
- TGI (HCC-2998 colon): > 100 µM
- TGI (COLO 205 colon): > 100 µM
- TGI (RPMI-8226 leukemia): > 100 µM
- TGI (MDA-MB-435): > 100 µM
- TGI (UO-31 renal): > 100 µM

SMILES: N#CC1=C(N)N(c2ccccc2)C(c2ccccc2)C1(C#N)C#N (stereo not given)
- TGI (CCRF-CEM leukemia): 33.7 µM
- TGI (BT-549 breast): 37 µM
- TGI (NCI-H226 lung): 36.2 µM
- TGI (RXF 393 renal): 33.6 µM
- TGI (SF-539 CNS): 32.5 µM
- TGI (HCC-2998 colon): 30.2 µM
- TGI (COLO 205 colon): 36.1 µM
- TGI (RPMI-8226 leukemia): 37 µM
- TGI (MDA-MB-435): 35.6 µM
- TGI (UO-31 renal): 34.8 µM

SMILES: COC(=O)C1=C(C)NC(C)=C(C(=O)OC)C1c1nc2sccn2c1[N+](=O)[O-]
- TGI (CCRF-CEM leukemia): > 100 µM
- TGI (BT-549 breast): > 100 µM
- TGI (NCI-H226 lung): > 100 µM
- TGI (RXF 393 renal): > 100 µM
- TGI (SF-539 CNS): > 100 µM
- TGI (HCC-2998 colon): > 100 µM
- TGI (COLO 205 colon): > 100 µM
- TGI (RPMI-8226 leukemia): > 100 µM
- TGI (MDA-MB-435): > 100 µM
- TGI (UO-31 renal): > 100 µM

SMILES: Nc1nc(Cl)cc(NCC2(CO)CCCC2)n1
- TGI (CCRF-CEM leukemia): > 100 µM
- TGI (BT-549 breast): > 100 µM
- TGI (NCI-H226 lung): > 100 µM
- TGI (RXF 393 renal): > 100 µM
- TGI (SF-539 CNS): > 100 µM
- TGI (HCC-2998 colon): > 100 µM
- TGI (COLO 205 colon): > 100 µM
- TGI (RPMI-8226 leukemia): > 100 µM
- TGI (MDA-MB-435): > 100 µM
- TGI (UO-31 renal): > 100 µM

SMILES: C=CC[C@]12C=C(OC)[C@@H](O)[C@](OC)(C(c3cc(OC)c4c(c3)OCO4)[C@H]1C)[C@H]2OC(C)=O (stereo not given in full)
- TGI (CCRF-CEM leukemia): > 100 µM
- TGI (BT-549 breast): > 100 µM
- TGI (NCI-H226 lung): > 100 µM
- TGI (RXF 393 renal): > 100 µM
- TGI (SF-539 CNS): > 100 µM
- TGI (HCC-2998 colon): > 100 µM
- TGI (COLO 205 colon): > 100 µM
- TGI (RPMI-8226 leukemia): > 100 µM
- TGI (MDA-MB-435): > 100 µM
- TGI (UO-31 renal): > 100 µM

SMILES: Cn1c2ccccc2c(=NNc2cccc(C(=O)O)c2)c2ccccc21
- TGI (CCRF-CEM leukemia): 25.6 µM
- TGI (BT-549 breast): 62.8 µM
- TGI (NCI-H226 lung): 48.6 µM
- TGI (RXF 393 renal): 22 µM
- TGI (SF-539 CNS): 46.9 µM
- TGI (HCC-2998 colon): 14.9 µM
- TGI (COLO 205 colon): 28.5 µM
- TGI (RPMI-8226 leukemia): 28.3 µM
- TGI (MDA-MB-435): 27.1 µM
- TGI (UO-31 renal): 46.3 µM

SMILES: CC(C)(Cl)C(Br)CCC(=CCCl)CBr (mixture of isomers)
- TGI (CCRF-CEM leukemia): > 21.1 µM
- TGI (BT-549 breast): 6.24 µM
- TGI (NCI-H226 lung): 45 µM
- TGI (RXF 393 renal): 7.57 µM
- TGI (SF-539 CNS): 3.96 µM
- TGI (HCC-2998 colon): 4.22 µM
- TGI (COLO 205 colon): 5.15 µM
- TGI (RPMI-8226 leukemia): 4.38 µM
- TGI (MDA-MB-435): 3.71 µM
- TGI (UO-31 renal): 3.42 µM

SMILES: Nc1ccc(S(=O)(=O)Nc2nccs2)cc1
- TGI (CCRF-CEM leukemia): > 100 µM
- TGI (BT-549 breast): > 100 µM
- TGI (NCI-H226 lung): > 100 µM
- TGI (RXF 393 renal): > 100 µM
- TGI (SF-539 CNS): > 100 µM
- TGI (HCC-2998 colon): > 100 µM
- TGI (COLO 205 colon): > 100 µM
- TGI (RPMI-8226 leukemia): > 100 µM
- TGI (MDA-MB-435): > 100 µM
- TGI (UO-31 renal): > 100 µM

SMILES: COc1cccc(/C=N/n2c(C)n[nH]c2=O)c1
- TGI (CCRF-CEM leukemia): > 100 µM
- TGI (BT-549 breast): > 100 µM
- TGI (NCI-H226 lung): > 100 µM
- TGI (RXF 393 renal): > 100 µM
- TGI (SF-539 CNS): > 100 µM
- TGI (HCC-2998 colon): > 100 µM
- TGI (COLO 205 colon): > 100 µM
- TGI (RPMI-8226 leukemia): > 100 µM
- TGI (MDA-MB-435): > 100 µM
- TGI (UO-31 renal): > 100 µM

SMILES: NNC(=O)CSc1nc2ccccc2c(=O)n1N
- TGI (CCRF-CEM leukemia): > 100 µM
- TGI (BT-549 breast): > 100 µM
- TGI (NCI-H226 lung): > 100 µM
- TGI (RXF 393 renal): 95.5 µM
- TGI (SF-539 CNS): > 100 µM
- TGI (HCC-2998 colon): > 100 µM
- TGI (COLO 205 colon): > 100 µM
- TGI (RPMI-8226 leukemia): > 100 µM
- TGI (MDA-MB-435): > 100 µM
- TGI (UO-31 renal): > 100 µM

SMILES: CC(C)(C)C(=O)CC1=Nc2ccccc2SC1(O)CC(=O)C(C)(C)C (stereo not given)
- TGI (CCRF-CEM leukemia): 32.2 µM
- TGI (BT-549 breast): 51.1 µM
- TGI (NCI-H226 lung): 40.3 µM
- TGI (RXF 393 renal): 65.8 µM
- TGI (SF-539 CNS): 61.3 µM
- TGI (HCC-2998 colon): 40.5 µM
- TGI (COLO 205 colon): 29.8 µM
- TGI (RPMI-8226 leukemia): 25.7 µM
- TGI (MDA-MB-435): 64.5 µM
- TGI (UO-31 renal): 44.2 µM

SMILES: COC1C=COC2(C)Oc3c(C)c(O)c4c(O)c(c(C5SCCS5)c(O)c4c3C2=O)NC(=O)C(C)=C/C=C\C(C)C2OC(C)(C)OC(C2C)C(C)C(OC(C)=O)C1C (stereo not given)
- TGI (CCRF-CEM leukemia): > 100 µM
- TGI (BT-549 breast): 9.26 µM
- TGI (NCI-H226 lung): 22.1 µM
- TGI (RXF 393 renal): 30 µM
- TGI (SF-539 CNS): 86.4 µM
- TGI (HCC-2998 colon): 20.2 µM
- TGI (COLO 205 colon): > 100 µM
- TGI (RPMI-8226 leukemia): > 100 µM
- TGI (MDA-MB-435): 47.9 µM
- TGI (UO-31 renal): 32.6 µM
